Source: patent US20220372491A1, “TREATMENT OF RENAL CYSTIC DISEASE” (MONASH UNIVERSITY, priority 2019, published 2022)

Legend:
[1] = system: Inpp5e^Δ/Δ mice; assay: Oral Alisertib treatment of Inpp5e^Δ/Δ mice (Joubert Syndrome associated PKD model); type: in vivo, mouse
Experimental: (§1) Alisertib treatment was performed based on previously published protocols (Nikonova et al., (2014) PNAS 111:12859-12864; Nikonova (2015) Frontiers Oncol. 5:228), as follows: Starting at P9 Inpp5e^Δ/Δ and Inpp5e^Δ/Δ mice were treated once daily for 5 days with Alisertib delivered orally by pipette in a suspended solution with a final composition of 3.6 mg/ml Alisertib ([…], Selleck Chemicals) in 10% 2-hydroxypropyl-β-cyclodextrin ([…]-10ML, Sigma-Aldrich) with 1% (vol/vol) sodium bicarbonate ([…]-100ML, Sigma-Aldrich) and 5% glucose (49163-100ML, Sigma-Aldrich). Mice were dosed with a volume to deliver Alisertib at 10 mg/kg. Mouse body weights were recorded daily. Solutions were stored at 4 degrees for up to 1 month. […] Mice were then given 2 recovery days before being sacrificed at P15. This time frame was selected as it corresponded to an exponential rise in cyst number in Inpp5e^Δ/Δ mice. Aurka^Δ/Δ and Inpp5e^Δ/Δ; Aurka^Δ/Δ treatment groups were also included to determine the AURKA specificity of any phenotypes observed given Alisertib's broad drug targeting profile. Mice were culled via cervical dislocation or decapitation, as most appropriate for their age following ethical guidelines. Procedures were all conducted by ethically approved and trained personnel. Mice were measured for body weight, with ear tissue, urine and kidneys collected. Ear tissue and urine was stored at -20 degrees. Newborn and P4 kidneys were fixed whole in 4% PFA for 16 hrs at 4 degrees, while the kidney capsule membrane was removed from older mouse kidneys, with the kidney cut into halves and fixed in 10% NBF for 16 hrs at room temperature. Half the kidney samples were sent for histological processing and the other half were snap frozen and stored at -80 degrees until processed for RNA, alpha analysis and/or western blotting. Kidney tissues were paraffin imbedded and sectioned at 4 μm for most analysis with the exception of being sectioned at 10 μm for cilia analysis. Antigen retrieval was performed in Citrate buffer pH6 using Tefal pressure cooker or using a DAKO […] system as indicated. Antibody staining was performed as described elsewhere (Cottle et al., (2013) Cell reports, 3: 427-441), except triton x-100 was included in blocking buffers, and cover slips mounted using Prolong Gold (Invitrogen). Antibodies and stains are listed below. Imaging was using an Aperio brightfield and fluorescent scanners (MHP), Olympus Fluoview 500 (Biochemistry Imaging Suite), Nikon C2 or Leica SP8 confocal microscope (MMI). All quantifications with the exception of Nanostring analysis and Chi squared tests for analysis of mendelian ratios, were analyzed using the unpaired Student's t-test assuming unequal variance in Microsoft Excel and P≤0.05 values were considered significant. One or two tailed tests were selected as appropriate for hypothesis. Values presented are Mean±Standard Error of the Mean (S.E.M). 2K/BW % was calculated as the combined kidney weight over total body weight percentage. Albumin Creatinine Ratios (ACR) were calculated as μg Albumin over mg of Creatinine. Cyst identity was measured as a proportion of cyst epithelial area for each marker out of total sum of cyst epithelial areas of all markers (adjusted for marker co-localisation). Cystic index % is calculated as the proportion of cystic space occupied out of total kidney area in DBA-stained kidney longitudinal cross-sections. Cyst number reflects the average number of cysts counted per DBA-stained longitudinal kidney cross section. Cyst size is the average cross-sectional cyst size (mm^2) of cysts sampled from DBA-stained kidney longitudinal cross sections. Due to escape of Cre activity at the Aurka locus in cysts, unless otherwise indicated references to Inpp5e^Δ/Δ; Aurka^Δ/Δ immunostains and their quantifications reflect non-cystic regions throughout this study.

[2] = system: Inpp5e^Δ/Δ; Aurka^Δ/Δ mice; assay: Oral Alisertib treatment of Inpp5e^Δ/Δ; Aurka^Δ/Δ (double mutant) mice; type: in vivo, mouse
Experimental: as §1

[3] = Solubility of Alisertib in the oral dosing vehicle; type: physicochemical; settings: 3.6 mg/ml in 10% 2-hydroxypropyl-β-cyclodextrin, 1% sodium bicarbonate, 5% glucose
Experimental: Alisertib treatment was performed based on previously published protocols (Nikonova et al., (2014) PNAS 111:12859-12864; Nikonova (2015) Frontiers Oncol. 5:228), as follows: Starting at P9 Inpp5e^Δ/Δ and Inpp5e^Δ/Δ mice were treated once daily for 5 days with Alisertib delivered orally by pipette in a suspended solution with a final composition of 3.6 mg/ml Alisertib (S1133, Selleck Chemicals) in 10% 2-hydroxypropyl-β-cyclodextrin (H5784-10ML, Sigma-Aldrich) with 1% (vol/vol) sodium bicarbonate (S8761-100ML, Sigma-Aldrich) and 5% glucose (49163-100ML, Sigma-Aldrich). Mice were dosed with a volume to deliver Alisertib at 10 mg/kg. Mouse body weights were recorded daily. Solutions were stored at 4 degrees for up to 1 month. […] Mice were then given 2 recovery days before being sacrificed at P15. This time frame was selected as it corresponded to an exponential rise in cyst number in Inpp5e^Δ/Δ mice. Aurka^Δ/Δ and Inpp5e^Δ/Δ; Aurka^Δ/Δ treatment groups were also included to determine the AURKA specificity of any phenotypes observed given Alisertib's broad drug targeting profile.

[4] = system: mIMCD3 cells; assay: Western blots and densitometry of mIMCD3 cell lysates treated with Alisertib; type: cell-based, mouse
Experimental: mIMCD3 cells were grown as previously described (Plotnikova et al., (2015) J. Cell Sci. 128: 364-372). Using a hemocytometer, mIMCD3 cells were seeded in 6 well dishes at 1.3×10^5 cells per well in growth media and incubated overnight at 37° C. in 5% CO2. Lipofectamine 3000 Reagent kit (Invitrogen) was used for plasmid transfection according to manufacturer's protocol (3.75 μl of Lipofectamine 3000, 2.5 μg DNA and 5 μl of P3000 reagent in each well). siRNA transfections were also performed with Lipofectamine 3000 (Invitrogen) according to manufacturer's protocol (0.75 μl of Lipofectamine 3000, 25 pmol siRNA in each well). Plasmids included pCGN (HA-tag)^48, pCGN-HA-AURKA (gift from Olga Plotniknova), and pCGN-HA-AURKA KD (made in this study using Q5 Site-Directed Mutagenesis Kit NEB.E0554S according to manufacturer's protocol to contain the K162R variant described for pCDNA3.1-mRFP-AURKA K162R). All plasmids were prepared with Qiagen plasmid midiprep kits. siRNAs were All Stars negative control siRNA (S103650318, Qiagen) and Mm_Aurka_1 Flexitube siRNA (S100908803, Qiagen). Alisertib (10 mM in DMSO, S1133, SelleckChem) was added to media at 1 μM final concentration where indicated.
Following ˜16 hrs after plasmid and siRNA transfections, fresh growth media was placed on mIMCD3 cells and wells harvested up to 24 hrs later. Alternatively, for serum-starvation conditions, 0.5% serum containing was placed on mIMCD3 cells and wells harvested after 24 hrs. For serum-restimulation conditions mIMCD3 cells were first placed in 0.5% serum media for 24 hrs before addition of fresh growth media for up to 20 mins before harvest. For immunofluorescence experiments, mIMCD3 cells were grown on collagen I-coated 22×22 mm coverslips and processed as described in Cottle et al., (2007) J. Cell Sci. 120: 1423-1435 and Wiradjaja et al., (2013) Disease models & mechanisms, 6: 1426-1433).
Tissue extracts were prepared in AlphaLISA Surefire Ultra lysis buffer. Cell extracts were prepared in 1% Triton X-100 in Tris-buffered saline pH7.4 with Roche complete mini protease and PhosSTOP inhibitor tablets as described above. Immunoblotting was performed using standard techniques, with antibodies listed below. Densitometry values were determined using ImageJ software and occasional extreme outliers more than 2 standard deviations from the mean omitted.

[5] = system: adult mouse models of ADPKD; settings: cited from earlier work
[6] = Inpp5e^Δ/Δ mice, 10 mg/kg orally P9 to P13, P15, vs vehicle
[7] = double mutant mice, relative to vehicle controls
[8] = mice in which Aurka had been predominantly deleted, 10 mg/kg orally P9 to P13, P15
[9] = 1 μM Alisertib, 48 hrs, growth conditions

**Q.** For COc1cc(Nc2ncc3c(n2)-c2ccc(Cl)cc2C(c2c(F)cccc2OC)=NC3)ccc1C(=O)O [Alisertib], which “levels of nuclear localised active p53 in collecting duct cells” value ([1]; 10 mg/kg orally once daily P9 to P13, tissue at P15) is on record?
**A.** The value was “increased levels of nuclear localised active p53”.

**Q.** And the “cilia number (% ciliated collecting duct cells)” value ([1]; Inpp5e^Δ/Δ kidneys, vs vehicle)?
**A.** The value was “markedly reduced cilia number”.

**Q.** And the “co-expression of high levels of AURKA and AKT pT308 in collecting duct cells” value ([1]; Inpp5e^Δ/Δ kidneys, vs vehicle)?
**A.** Its value is “increased co-expression of high levels of AURKA and AKT pT308”.

**Q.** What about the cyst size [1, 6] of the same compound?
**A.** The cyst size was “reduced cyst size”.

**Q.** What about the “kidney to body weight ratio and kidney size” value [1, 6] of the same compound?
**A.** Its value is “marked reduction in kidney to body weight ratio and kidney size”.

**Q.** And the number of cysts [1, 6]?
**A.** Its number of cysts is “increased in the number of cysts”.

**Q.** What about the hair loss ([1]; all Alisertib-treated mouse cohorts vs vehicle, 10 mg/kg orally once daily P9 to P13, tissue at P15) of the same compound?
**A.** The hair loss was “hair loss observed in all treated mouse cohorts”.

**Q.** What about the cystic index % ([1]; cystic genotypes Inpp5e^Δ/Δ and Inpp5e^Δ/Δ, Aurka^Δ/Δ, vs vehicle) of the same compound?
**A.** Its cystic index % is “no Alisertib-induced changes”.

**Q.** What about the “AKT pT308 expression” value [2, 7] of the same compound?
**A.** The value was “did not show reduced ciliation or AKT pT308 expression”.

**Q.** What about the ciliation [2, 7] of the same compound?
**A.** Its ciliation is “did not show reduced ciliation”.

**Q.** And the cyst index [2, 8]?
**A.** The cyst index was “No change”.

**Q.** What about the cyst number [2, 8] of the same compound?
**A.** The cyst number was “No change”.

**Q.** What about the cyst size [2, 8] of the same compound?
**A.** Its cyst size is “No change”.

**Q.** What about the “kidney to body weight ratio” value [2, 8] of the same compound?
**A.** The value was “No change”.

**Q.** And the “solubility in dosing vehicle” value [3]?
**A.** The value was “largely insoluble”.

**Q.** And the AURKA protein level ([4]; 1 μM Alisertib, 48 hrs of exposure, growth conditions)?
**A.** Its AURKA protein level is “two-fold increase in AURKA protein”.

**Q.** What about the “AKT phosphorylation at S473 (AKT pS473/total AKT expression ratio)” value [4, 9] of the same compound?
**A.** Its value is “but not S473”.

**Q.** And the “AKT phosphorylation at T308 (AKT pT308/total AKT expression ratio)” value [4, 9]?
**A.** Its value is “increasing AKT phosphorylation at T308”.

**Q.** And the “total AKT” value [4, 9]?
**A.** Its value is “modestly reducing total AKT”.

**Q.** And the “rebound increase of AKT T308 phosphorylation” value ([4]; 24 hrs of Alisertib exposure)?
**A.** The value was “not observed following 24 hrs of Alisertib exposure”.

**Q.** And the “AURKA T288 phosphorylation ratio” value ([4]; Alisertib or vehicle for 48 hrs under growth conditions)?
**A.** Its value is “reduces the AURKA T288 phosphorylation ratio”.

**Q.** What about the cystic disease [5] of the same compound?
**A.** Its cystic disease is “exaggerates cystic disease”.
